Test results: publication PMC3432134, “Effect of Ambient Temperature on the Thermoregulatory and Locomotor Stimulant Effects of 4-Methylmethcathinone in Wistar and Sprague-Dawley Rats” (PLoS ONE, 2012)
“And” between values parts separate entries of the source, which are not always exact repeats. Equal entries are not always repeated.

Key:
experienced-user sample = details: one experienced-user sample; cited from earlier work
[1] = tested on: 5-HT2 receptor subtypes versus D2 receptors; set-up: method as in PMID 21824752; details: in vitro; greater affinity for 5-HT2; cited from earlier work
[2] = tested on: extra-cellular dopamine in the nucleus accumbens shell; assay: In vivo microdialysis, nucleus accumbens shell, dopamine; set-up: species or system rat; details: 5 male Wistar rats, 10 mg/kg s.c.
Description: (§1) For microdialysis studies, drug naïve rats were implanted with a microdialysis guide cannula and probe using previously published procedures. A guide cannula (SciPro, Sanborn, NY) was implanted aimed at the NAc shell (AP = +1.6 mm, bregma; ML = ±2.0 mm, bregma; DV = –5.0 mm, dura), and rats were allowed one week for recovery. On the evening prior to the experiment, a 2 mm microdialysis probe was inserted into the guide cannula and perfused overnight with artificial CSF (0.1 µl/min) composed of the following (in mM): 149 NaCl, 2.8 KCl, 1.2 CaCl2, 1.2 MgCl2, 0.25 ascorbic acid, 5.4 D-glucose. The following morning, the perfusion rate was raised to 0.6 µl/min and samples were collected in 15 min fractions following 1 hr of equilibration.

[3] = tested on: Wistar and Sprague-Dawley rats; assay: Locomotor activity (activity counts) by implanted radiotelemetry after s.c. drug challenge
extracellular dopamine = tested on: extracellular dopamine; set-up: method as in PMID 21615721, PMID 22169943; details: cited from earlier work
[4] = tested on: extra-cellular serotonin in the nucleus accumbens shell; assay: In vivo microdialysis, nucleus accumbens shell, serotonin; set-up: species or system rat; details: 5 male Wistar rats, 10 mg/kg s.c.
Description: as §1

[5] = tested on: Wistar and Sprague-Dawley rats; assay: Body temperature by implanted radiotelemetry after s.c. drug challenge
Sprague-Dawley rats = tested on: Sprague-Dawley rats; set-up: method as in PMID 21810934; details: four sequential doses of 1.0 or 3.0 mg/kg s.c. two hours apart, and i.v. self-administration (mean 1.77–6.78 mg/kg), ambient ≥27°C; cited from earlier work
[6] = Pharmacokinetic study, plasma levels by LC/MS/MS after s.c. dosing; format: in vivo, rat; details: for AUC(0-inf) / Tmax / Cmax: rat, plasma, sc, 5.6 mg/kg s.c.
Description: Surgical placement of jugular vein catheters was conducted at the vendor prior to delivery at the laboratory. Blood samples were collected via the jugular catheters at timepoints 5, 15, 30, 60, 120 min and 3, 6 and 24 hrs after dosing. Plasma was stored at −80°C until analysis for drug concentrations via LC/MS/MS. Sample analysis was by LC/MS/MS with data analysis via the non compartmental analysis model of PK Solutions (Summit Research Services; Montrose, CO). The summary data for the Sprague-Dawley group have been previously described.

[7] = Sprague-Dawley rats, 23°C ambient, first hour after 3.2 mg/kg 4-MMC and 5.6 mg/kg METH, vs pretreatment and vehicle
[8] = Wistar and Sprague-Dawley rats, s.c.
[9] = Wistar rats, 23°C ambient, first hour after 3.2 mg/kg 4-MMC or 5.6 mg/kg METH, second hour after 10.0 mg/kg 4-MMC, third hour after 5.6 mg/kg METH
[10] = both strains, 23°C ambient, first hour after 10.0 mg/kg 4-MMC or 1.0 mg/kg METH s.c., greater in Sprague-Dawley
[11] = Wistar Han, male Wistar rats (N = 3)
[12] = male Sprague Dawley rats (N = 3), summary data previously described [32]
[13] = subcutaneous dosing, rats (strain not given)

Structure (SMILES): CNC(C)C(=O)c1ccc(C)cc1 (stereo not drawn) [4-MMC, 4-methylmethcathinone]
- users reporting cold extremities (experienced-user sample): About 15%
- users reporting excessive perspiration (experienced-user sample): 67%
- affinity for 5-HT2 receptor subtypes relative to D2 receptors [1]: 15 fold
- relative increase of extra-cellular DA over baseline [2]: ~9 fold
- duration of significant increase of DA over the pre-treatment average ([2]; Dunnett post-hoc): 2 h
- locomotor activity (hourly summed counts) [3, 7]: reliably higher
- locomotor activity (hourly summed counts) ([3]; Sprague-Dawley rats, 27°C ambient, first hour after 5.6 or 10.0 mg/kg, vs pre-injection, vehicle and Wistar): higher
- efficacy in stimulating locomotion relative to d-methamphetamine (METH) [3, 8]: equally efficacious
- potency in stimulating locomotion relative to METH [3, 8]: about tenfold less potent
- locomotor activity (hourly summed counts) [3, 9]: higher than the vehicle condition
- locomotor activity (hourly summed counts) ([3]; Wistar rats, 27°C ambient, after 3.2, 5.6 and 10.0 mg/kg, vs hour before injection and vehicle): higher
- locomotor activity (hourly summed counts) [3, 10]: increased over pretreatment levels and vehicle
- locomotor activity (hourly summed counts) ([3]; each strain, 23°C ambient, first hour after 5.6 or 10.0 mg/kg s.c., vs pre-injection hour and saline): significantly elevated
- locomotor activity (hourly summed counts) ([3]; each strain, 23°C ambient, second hour after 10.0 mg/kg, vs vehicle, effect greater in Sprague-Dawley): significant increase
- increase of extracellular dopamine, less than METH (extracellular dopamine): about 6 fold
- relative increase of extra-cellular 5-HT over baseline [4]: ~22 fold
- duration of significant increase of 5-HT over the pre-treatment average ([4]; Dunnett post-hoc): 1.5 h
- body temperature (hourly average) ([5]; Sprague-Dawley rats, 23°C ambient, only following 3.2 mg/kg (2, 3 hrs) and 5.6 mg/kg (3 hrs)): lower than both the pretreatment baseline and the comparable timepoint after vehicle injection
- body temperature (hourly average) ([5]; Sprague-Dawley rats, 23°C ambient, second hour after 10.0 mg/kg): increased relative to vehicle
- body temperature (hourly average) ([5]; Sprague-Dawley rats, 27°C ambient, first hour after administration): unchanged
- body temperature (hourly average) ([5]; Sprague-Dawley rats, 27°C ambient, third hour after 1.0 mg/kg, vs baseline and vehicle): reliable decrease
- mean temperature nadir ([5]; Wistar rats, 10 mg/kg s.c., 23°C ambient, (±SEM)): 36.74 (±0.187) °C
- mean temperature nadir ([5]; Wistar rats, 10 mg/kg s.c., 27°C ambient, (±SEM)): 37.35 (±0.115) °C
- body temperature (hourly average) ([5]; Wistar rats, 23°C ambient, first hour after 3.2, 5.6 and 10 mg/kg s.c., vs baseline, saline and Sprague-Dawley): significantly lowered
- body temperature (hourly average) ([5]; Wistar rats, 27°C ambient, first hour after 5.6 or 10.0 mg/kg s.c., vs baseline, saline and Sprague-Dawley): decreased
- duration of temperature and activity effects ([5]; s.c. dosing, rats, applies to temperature and activity): about 90 minutes
- rectal temperature (Sprague-Dawley rats): elevates
- AUC(0-inf) [6, 11]: 870 ng·h/mL
- Tmax [6, 11]: 15 min
- Cmax [6, 11]: 868 ng/mL and 4.9 µM
- AUC(0-inf) [6, 12]: 1170 ng·h/mL
- Tmax [6, 12]: 15 min
- Cmax [6, 12]: 1210 ng/mL and 6.81 µM
- elimination from plasma [6, 13]: mostly eliminated within two hours
- time at which maximum plasma levels were observed [6, 13]: ≤ 15 min

Structure (SMILES): CCCN(CCC)C1CCc2cccc(O)c2C1 (stereo not drawn) [8-OH-DPAT]
- mean temperature nadir ([5]; Sprague-Dawley rats, 0.3 mg/kg s.c., 23°C ambient): 35.62 (±0.177) °C
- body temperature (hourly average) ([5]; Sprague-Dawley rats, 0.05, 0.1, 0.3 mg/kg, first hour (second hour also for 0.3 mg/kg), vs vehicle and baseline): lowered body temperature
- mean temperature nadir ([5]; Wistar rats, 0.3 mg/kg s.c., 23°C ambient): 35.18 (±0.178) °C
- body temperature (hourly average) ([5]; Wistar rats, two hours after dosing with all three doses (0.05, 0.1, 0.3 mg/kg), vs vehicle and baseline): hypothermia
- body temperature ([5]; each strain of rats, 23°C ambient, s.c.): significantly reduced

Structure (SMILES): CN[C@@H](C)Cc1ccccc1 [METH, d-methamphetamine]
- locomotor activity (hourly summed counts) [3, 7]: reliably higher
- locomotor activity (hourly summed counts) [3, 9]: higher than the vehicle condition
- locomotor activity (hourly summed counts) [3, 10]: increased over pretreatment levels and vehicle
- locomotor activity (hourly summed counts) ([3]; both strains, 23°C ambient, second hour after 5.6 mg/kg s.c.): suppressed
- body temperature (hourly average) ([5]; Sprague-Dawley rats, 23°C ambient, first hour after 1.0 mg/kg and first two hours after 5.6 mg/kg s.c., vs baseline and vehicle): significantly increased
